Laboratory results from US8299070B2, “Indole compounds and pharmaceutical use thereof” (Japan Tobacco Inc., priority 2009, dated 2012).

What follows are molecules tested against T1, hITK enzyme (FLAG-tagged full-length hITK) (Homo sapiens, UniProt Q08881) (assay: ITK inhibitory activity (HTRF kinase assay, biotinylated GST-SLP76 substrate)). Conditions: IC50 calculated from the 2 test compound concentrations sandwiching 50% ITK inhibitory rate.
T1 construct: strongly expressing FLAG-tagged full-length hITK in Sf9 cells; FLAG; made in house; host or cells: Sf9 insect cells (ITK); Escherichia coli (GST-SLP76 substrate)
T1 sequence (Q08881 1-620): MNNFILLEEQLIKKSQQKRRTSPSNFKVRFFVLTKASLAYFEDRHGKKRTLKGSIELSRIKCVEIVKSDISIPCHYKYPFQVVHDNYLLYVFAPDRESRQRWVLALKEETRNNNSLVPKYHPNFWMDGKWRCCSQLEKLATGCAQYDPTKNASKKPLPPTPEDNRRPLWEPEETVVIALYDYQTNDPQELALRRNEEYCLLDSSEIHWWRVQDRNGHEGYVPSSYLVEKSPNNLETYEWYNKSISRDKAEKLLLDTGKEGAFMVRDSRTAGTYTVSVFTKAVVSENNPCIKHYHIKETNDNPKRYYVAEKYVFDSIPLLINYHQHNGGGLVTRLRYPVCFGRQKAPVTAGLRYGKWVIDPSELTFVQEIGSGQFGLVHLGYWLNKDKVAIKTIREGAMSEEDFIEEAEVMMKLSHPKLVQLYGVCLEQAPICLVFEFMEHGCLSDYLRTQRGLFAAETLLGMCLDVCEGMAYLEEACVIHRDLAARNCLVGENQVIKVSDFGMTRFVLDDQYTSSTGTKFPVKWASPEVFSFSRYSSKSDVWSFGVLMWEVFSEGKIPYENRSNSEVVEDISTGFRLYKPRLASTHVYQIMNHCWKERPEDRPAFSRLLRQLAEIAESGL
Type: biochemical
Method in brief: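 Sf9-expressed hITK (50 ng/mL enzyme solution) reacted 10 min at RT in MOPS pH 7.0, 10 mmol/L MgCl2, 1 mmol/L DTT with E. coli SLP76 aa95–175 substrate; substrate solution held 100 µmol/L ATP (6 µmol/L for selected compounds). HTRF 665/620 ratio, blank-corrected; IC50 interpolated between two concentrations bracketing 50% inhibition.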

SMILES	IC50 [nM]
CC(C)OCCNC(=O)c1ccc2[nH]c(-c3n[nH]c4c3CCC(C)(C)C4)cc2c1 [Example 307]	61
CCCOCCNC(=O)c1ccc2[nH]c(-c3n[nH]c4c3CCC(C)(C)C4)cc2c1 [Example 308]	49
CC1(C)CCc2c(-c3cc4cc(C(=O)NCCOc5ccccc5)ccc4[nH]3)n[nH]c2C1 [Example 309]	102
COCCNC(=O)c1ccc2[nH]c(-c3n[nH]c4c3CCC(C)(C)C4)cc2c1 [Example 310]	47
COC(=O)CN(C)C(=O)c1ccc2[nH]c(-c3n[nH]c4c3CCC(C)(C)C4)cc2c1 [Example 311]	32
CN(CC(=O)O)C(=O)c1ccc2[nH]c(-c3n[nH]c4c3CCC(C)(C)C4)cc2c1 [Example 312]	27
COCCN(C)C(=O)c1ccc2[nH]c(-c3n[nH]c4c3CCC(C)(C)C4)cc2c1 [Example 313]	47
CN(Cc1ccccc1)C(=O)c1ccc2[nH]c(-c3n[nH]c4c3CCC(C)(C)C4)cc2c1 [Example 314]	143
CC1(C)CCc2c(-c3cc4cc(C(=O)NCc5ccccc5)ccc4[nH]3)n[nH]c2C1 [Example 315]	60
CC1(C)CCc2c(-c3cc4cc(C(=O)NCc5nccs5)ccc4[nH]3)n[nH]c2C1 [Example 316]	47
CC1(C)CCc2c(-c3cc4cc(C(=O)NCc5nnn[nH]5)ccc4[nH]3)n[nH]c2C1 [Example 317]	21
CC1(C)CCc2c(-c3cc4cc(C(=O)NCc5ccoc5)ccc4[nH]3)n[nH]c2C1 [Example 318]	45
Cn1cccc1CNC(=O)c1ccc2[nH]c(-c3n[nH]c4c3CCC(C)(C)C4)cc2c1 [Example 319]	46
CC1(C)CCc2c(-c3cc4cc(C(=O)NC(C)(C)CO)ccc4[nH]3)n[nH]c2C1 [Example 320]	49
CON(C)C(=O)c1ccc2[nH]c(-c3n[nH]c4c3CCC(C)(C)C4)cc2c1 [Example 321]	48
CC1(C)CCc2c(-c3cc4cc(C(=O)NCCN5CCOCC5)ccc4[nH]3)n[nH]c2C1 [Example 322]	41
CN(C)CCNC(=O)c1ccc2[nH]c(-c3n[nH]c4c3CCC(C)(C)C4)cc2c1 [Example 323]	34
CC1(C)CCc2c(-c3cc4cc(C(=O)Nc5nnc(O)s5)ccc4[nH]3)n[nH]c2C1 [Example 324]	140
COc1nnc(NC(=O)c2ccc3[nH]c(-c4n[nH]c5c4CCC(C)(C)C5)cc3c2)s1 [Example 325]	246
CC1(C)CCc2c(-c3cc4cc(C(=O)NC(C)(C)C(=O)O)ccc4[nH]3)n[nH]c2C1 [Example 326]	42
CC1(C)CCc2c(-c3cc4cc(C(=O)NC(C)(C)C(=O)OC(C)(C)C)ccc4[nH]3)n[nH]c2C1 [Example 327]	132
CC1(C)CCc2c(-c3cc4cc(C(=O)NC(CO)CO)ccc4[nH]3)n[nH]c2C1 [Example 328]	26
Cn1cncc1CNC(=O)c1ccc2[nH]c(-c3n[nH]c4c3CCC(C)(C)C4)cc2c1 [Example 329]	13

SMILES	IC50 [nM]
CCN(CC)C(=O)c1ccc2[nH]c(-c3n[nH]c4c3CCC(C)(C)C4)cc2c1 [Example 330]	80
CCN(C)C(=O)c1ccc2[nH]c(-c3n[nH]c4c3CCC(C)(C)C4)cc2c1 [Example 331]	60
CC1(C)CCc2c(-c3cc4cc(C(=O)N5CCCC5)ccc4[nH]3)n[nH]c2C1 [Example 332]	46
CC1(C)CCc2c(-c3cc4cc(C(=O)N5CCCCC5)ccc4[nH]3)n[nH]c2C1 [Example 333]	106
CC1(C)CCc2c(-c3cc4cc(C(=O)N5CCc6[nH]cnc6C5)ccc4[nH]3)n[nH]c2C1 [Example 334]	31
CC1(C)CCc2c(-c3cc4cc(C(=O)N5C[C@@H](O)[C@@H](O)C5)ccc4[nH]3)n[nH]c2C1 [Example 335]	26
CC1(C)CCc2c(-c3cc4cc(C(=O)N5CCN(C(=O)OC(C)(C)C)CC5)ccc4[nH]3)n[nH]c2C1 [Example 336]	78
CCN1CCN(C(=O)c2ccc3[nH]c(-c4n[nH]c5c4CCC(C)(C)C5)cc3c2)CC1 [Example 337]	49
CO[C@H]1CN(C(=O)c2ccc3[nH]c(-c4n[nH]c5c4CCC(C)(C)C5)cc3c2)C[C@H]1OC [Example 338]	33
CN(C(=O)c1ccccc1)c1ccc2[nH]c(-c3n[nH]c4c3CCC(C)(C)C4)cc2c1 [Example 339]	842
CCC(=O)N(C)c1ccc2[nH]c(-c3n[nH]c4c3CCC(C)(C)C4)cc2c1 [Example 340]	129
CN(C(=O)C1CCOCC1)c1ccc2[nH]c(-c3n[nH]c4c3CCC(C)(C)C4)cc2c1 [Example 341]	333
CC(C)CC(=O)N(C)c1ccc2[nH]c(-c3n[nH]c4c3CCC(C)(C)C4)cc2c1 [Example 342]	245
CN(C(=O)CO)c1ccc2[nH]c(-c3n[nH]c4c3CCC(C)(C)C4)cc2c1 [Example 343]	135
CC1(C)CCc2c(-c3cc4cc(NC(=O)c5ccccc5)ccc4[nH]3)n[nH]c2C1 [Example 344]	278
CCC(=O)Nc1ccc2[nH]c(-c3n[nH]c4c3CCC(C)(C)C4)cc2c1 [Example 345]	88
CO[C@H]1CC[C@@H](C(=O)N(C)c2ccc3cc(-c4n[nH]c5c4CCC(C)(CO)C5)[nH]c3c2)CC1 (some centres unmarked) [Example 346]	5
COCC1(C)CCc2c(-c3cc4ccc(N(C)C(=O)CN5CCCCC5=O)cc4[nH]3)n[nH]c2C1 (centres unmarked) [Example 347]	4
COCC1(C)CCc2c(-c3cc4ccc(N(C)C(=O)[C@H]5CC[C@@H](OC)CC5)cc4[nH]3)n[nH]c2C1 (some centres unmarked) [Example 348]	8
CN(C(=O)C1CCCC1)c1ccc2cc(-c3n[nH]c4c3CCC(C)(CO)C4)[nH]c2c1 (centres unmarked) [Example 349]	2
CN(C(=O)c1ccccc1)c1ccc2cc(-c3n[nH]c4c3CCCC4)[nH]c2c1 [Example 350]	62
CCC(=O)N(C)c1ccc2cc(-c3n[nH]c4c3CCCC4)[nH]c2c1 [Example 351]	24
COCC(=O)N(C)c1ccc2cc(-c3n[nH]c4c3CCCC4)[nH]c2c1 [Example 352]	37

SMILES	IC50 [nM]
COCC(=O)N(C)c1ccc2cc(-c3n[nH]c4c3CC[C@@H](C)C4)[nH]c2c1 [Example 353]	16
CCC(=O)N(C)c1ccc2cc(-c3n[nH]c4c3CC[C@@H](C)C4)[nH]c2c1 [Example 354]	16
CCC(=O)N(C)c1ccc2cc(-c3n[nH]c4c3CCC(C)C4)[nH]c2c1 (centres unmarked) [Example 355]	9
COCC(=O)N(C)c1ccc2cc(-c3n[nH]c4c3CCC(C)C4)[nH]c2c1 (centres unmarked) [Example 356]	9
CC1CCc2c(-c3cc4ccc(N(C)C(=O)c5ccccc5)cc4[nH]3)n[nH]c2C1 (centres unmarked) [Example 357]	29
C[C@@H]1CCc2c(-c3cc4ccc(N(C)C(=O)c5ccccc5)cc4[nH]3)n[nH]c2C1 [Example 358]	38
CC(C)OCC(=O)N(C)c1ccc2cc(-c3n[nH]c4c3CCCC4)[nH]c2c1 [Example 359]	21
CC(=O)N(C)c1ccc2cc(-c3n[nH]c4c3CCCC4)[nH]c2c1 [Example 360]	67
CC(C)CC(=O)N(C)c1ccc2cc(-c3n[nH]c4c3CCCC4)[nH]c2c1 [Example 361]	20
CN(C(=O)COc1ccccc1)c1ccc2cc(-c3n[nH]c4c3CCCC4)[nH]c2c1 [Example 362]	12
CN(C(=O)OCc1ccccc1)c1ccc2cc(-c3n[nH]c4c3CC(OCc3ccccc3)C(C)(C)C4)[nH]c2c1 (centres unmarked) [Example 363]	485
CCC(=O)N(C)c1ccc2cc(-c3n[nH]c4c3CC(OCc3ccccc3)C(C)(C)C4)[nH]c2c1 (centres unmarked) [Example 364]	45
CCC(=O)N(C)c1ccc2cc(-c3n[nH]c4c3CC(O)CC4)[nH]c2c1 (centres unmarked) [Example 365]	45
COCC(=O)N(C)c1ccc2cc(-c3n[nH]c4c3CC(O)CC4)[nH]c2c1 (centres unmarked) [Example 366]	82
CN(C(=O)c1ccccc1)c1ccc2cc(-c3n[nH]c4c3CC(O)CC4)[nH]c2c1 (centres unmarked) [Example 367]	75
CCC(=O)N(C)c1ccc2cc(-c3n[nH]c4c3CC(OC)CC4)[nH]c2c1 (centres unmarked) [Example 368]	131
COCC(=O)N(C)c1ccc2cc(-c3n[nH]c4c3CC(OC)CC4)[nH]c2c1 (centres unmarked) [Example 369]	207
COC1CCc2[nH]nc(-c3cc4ccc(N(C)C(=O)c5ccccc5)cc4[nH]3)c2C1 (centres unmarked) [Example 370]	204
CCC(=O)N(C)c1ccc2cc(-c3n[nH]c4c3CC(OC(C)C)CC4)[nH]c2c1 (centres unmarked) [Example 371]	112
CCC(=O)N(C)c1ccc2cc(-c3n[nH]c4c3CC(OC)C(C)(C)C4)[nH]c2c1 (centres unmarked) [Example 372]	11
CCC(=O)N(C)c1ccc2cc(-c3n[nH]c4c3CC(O)C(C)(C)C4)[nH]c2c1 (centres unmarked) [Example 373]	8
CC(=O)Nc1ccc2cc(-c3n[nH]c4c3CCC(C)(C)C4)[nH]c2c1 [Example 374]	130
